Source: PubChem BioAssay (NCI)
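Five compound concentrations were applied to cells in 96-well plates for 48 hours; endpoints were derived by simple linear interpolation of the resulting dose-response curve. TGI is the concentration that stops growth completely.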

Legend:
Test in all cases: growth of human tumour cells (NCI), 48 h
RPMI-8226 leukemia = tested on: RPMI-8226 leukemia
SW-620 colon = tested on: SW-620 colon
HOP-62 NSCLC = tested on: HOP-62 NSCLC
XF 498 CNS = tested on: XF 498 CNS
K-562 leukemia = tested on: K-562 leukemia
SK-MEL-5 melanoma = tested on: SK-MEL-5 melanoma
NCI-H522 lung = tested on: NCI-H522 lung
KM12 colon = tested on: KM12 colon
IGROV1 ovarian = tested on: IGROV1 ovarian
NCI-H226 lung = tested on: NCI-H226 lung
M14 melanoma = tested on: M14 melanoma
786-0 renal = tested on: 786-0 renal
M19-MEL melanoma = tested on: M19-MEL melanoma
EKVX NSCLC = tested on: EKVX NSCLC
TK-10 renal = tested on: TK-10 renal
COLO 205 colon = tested on: COLO 205 colon
SNB-19 CNS = tested on: SNB-19 CNS
ACHN renal = tested on: ACHN renal
HCT-15 colon = tested on: HCT-15 colon
MALME-3M melanoma = tested on: MALME-3M melanoma
OVCAR-3 ovarian = tested on: OVCAR-3 ovarian
NCI-H23 lung = tested on: NCI-H23 lung
SN12C renal = tested on: SN12C renal
OVCAR-4 ovarian = tested on: OVCAR-4 ovarian
OVCAR-8 ovarian = tested on: OVCAR-8 ovarian
HCT-116 colon = tested on: HCT-116 colon
U251 CNS = tested on: U251 CNS
DLD-1 colon = tested on: DLD-1 colon
CCRF-CEM leukemia = tested on: CCRF-CEM leukemia
RXF 393 renal = tested on: RXF 393 renal
OVCAR-5 ovarian = tested on: OVCAR-5 ovarian
LXFL 529 NSCLC = tested on: LXFL 529 NSCLC
UACC-257 melanoma = tested on: UACC-257 melanoma
HL-60(TB) leukemia = tested on: HL-60(TB) leukemia
A498 renal = tested on: A498 renal
HCC-2998 colon = tested on: HCC-2998 colon
HOP-92 NSCLC = tested on: HOP-92 NSCLC
HT29 colon = tested on: HT29 colon
SNB-78 CNS = tested on: SNB-78 CNS
KM20L2 colon = tested on: KM20L2 colon
DMS 273 small cell lung = tested on: DMS 273 small cell lung
MOLT-4 leukemia = tested on: MOLT-4 leukemia
SR leukemia = tested on: SR leukemia
CAKI-1 renal = tested on: CAKI-1 renal
UO-31 renal = tested on: UO-31 renal
SK-MEL-28 melanoma = tested on: SK-MEL-28 melanoma
HOP-18 NSCLC = tested on: HOP-18 NSCLC
SF-295 CNS = tested on: SF-295 CNS
DMS 114 small cell lung = tested on: DMS 114 small cell lung
NCI-H460 lung = tested on: NCI-H460 lung
SK-MEL-2 melanoma = tested on: SK-MEL-2 melanoma
UACC-62 melanoma = tested on: UACC-62 melanoma
SF-268 CNS = tested on: SF-268 CNS
A549 NSCLC = tested on: A549 NSCLC
SF-539 CNS = tested on: SF-539 CNS
SNB-75 CNS = tested on: SNB-75 CNS
SK-OV-3 ovarian = tested on: SK-OV-3 ovarian
LOX IMVI melanoma = tested on: LOX IMVI melanoma

Compound `CC1=C(C(=O)NCc2ccccc2)C(c2ccc(C3C(C(=O)NCc4ccccc4)=C(C)NC(C)=C3C(=O)NCc3ccccc3)cc2)C(C(=O)NCc2ccccc2)=C(C)N1` has a TGI (RPMI-8226 leukemia) greater than 100 µM, a TGI (SW-620 colon) of 22.7 µM and a TGI (HOP-62 NSCLC) of 41.1 µM. The TGI (XF 498 CNS) was 31.1 µM, the TGI (K-562 leukemia) was greater than 100 µM and the TGI (SK-MEL-5 melanoma) was 30.9 µM. The TGI (NCI-H522 lung) was 10.1 µM, the TGI (KM12 colon) was 24.4 µM and the TGI (IGROV1 ovarian) was 37.8 µM. The TGI (NCI-H226 lung) was 33.7 µM, the TGI (M14 melanoma) was 24.1 µM and the TGI (786-0 renal) was 28.9 µM. It also gave a TGI (M19-MEL melanoma) of 21.3 µM, a TGI (EKVX NSCLC) of 28.9 µM and a TGI (TK-10 renal) of 37.8 µM. For the same compound, the TGI (COLO 205 colon) was 21.3 µM, the TGI (SNB-19 CNS) was 29.2 µM and the TGI (ACHN renal) was 29.6 µM. For the same compound, the TGI (HCT-15 colon) was 39 µM, the TGI (MALME-3M melanoma) was 36.3 µM and the TGI (OVCAR-3 ovarian) was 22.9 µM. It also gave a TGI (NCI-H23 lung) of 33.1 µM, a TGI (SN12C renal) of 20.5 µM and a TGI (OVCAR-4 ovarian) of 31.3 µM. For the same compound, the TGI (OVCAR-8 ovarian) was 20.9 µM, the TGI (HCT-116 colon) was 10.2 µM and the TGI (U251 CNS) was 14.4 µM. The TGI (DLD-1 colon) was 13.1 µM, the TGI (CCRF-CEM leukemia) was greater than 100 µM and the TGI (RXF 393 renal) was 33.4 µM. The TGI (OVCAR-5 ovarian) was 39.9 µM, the TGI (LXFL 529 NSCLC) was 15.5 µM and the TGI (UACC-257 melanoma) was 32.5 µM. The TGI (HL-60(TB) leukemia) was 44.7 µM, the TGI (A498 renal) was 31.7 µM and the TGI (HCC-2998 colon) was 35.3 µM. It also gave a TGI (HOP-92 NSCLC) of 32.9 µM, a TGI (HT29 colon) of 20.3 µM and a TGI (SNB-78 CNS) of 27.1 µM. The TGI (KM20L2 colon) was 29 µM, the TGI (DMS 273 small cell lung) was 31.7 µM and the TGI (MOLT-4 leukemia) was greater than 100 µM. The TGI (SR leukemia) was 20.7 µM, the TGI (CAKI-1 renal) was 34.9 µM and the TGI (UO-31 renal) was 35.7 µM. For the same compound, the TGI (SK-MEL-28 melanoma) was 25.2 µM, the TGI (HOP-18 NSCLC) was 52.7 µM and the TGI (SF-295 CNS) was 38.2 µM. The TGI (DMS 114 small cell lung) was 25.9 µM, the TGI (NCI-H460 lung) was greater than 100 µM and the TGI (SK-MEL-2 melanoma) was 49.9 µM. For the same compound, the TGI (UACC-62 melanoma) was 22.2 µM, the TGI (SF-268 CNS) was 81.7 µM and the TGI (A549 NSCLC) was 61.3 µM. For the same compound, the TGI (SF-539 CNS) was 5.52 µM.

With `S=c1sc2c(Cl)ncnc2n1-c1ccccc1` the TGI (RPMI-8226 leukemia) was 56.7 µM, the TGI (SW-620 colon) was 35.1 µM and the TGI (HOP-62 NSCLC) was 29.3 µM. The TGI (SNB-75 CNS) was 27.4 µM, the TGI (XF 498 CNS) was 28.7 µM and the TGI (SK-MEL-5 melanoma) was 29.7 µM. The TGI (NCI-H522 lung) was 3.8 µM, the TGI (KM12 colon) was 31 µM and the TGI (IGROV1 ovarian) was 28.2 µM. For the same compound, the TGI (NCI-H226 lung) was 26.4 µM, the TGI (M14 melanoma) was 26.3 µM and the TGI (786-0 renal) was 29.2 µM. It also gave a TGI (M19-MEL melanoma) of 13.1 µM, a TGI (EKVX NSCLC) of 31.5 µM and a TGI (TK-10 renal) of 33.2 µM. It also gave a TGI (COLO 205 colon) of 29 µM, a TGI (SNB-19 CNS) of 32.9 µM and a TGI (ACHN renal) of 30 µM. For the same compound, the TGI (HCT-15 colon) was 28.4 µM, the TGI (MALME-3M melanoma) was 23.9 µM and the TGI (OVCAR-3 ovarian) was 28.9 µM. The TGI (NCI-H23 lung) was 31.7 µM, the TGI (SN12C renal) was 29.4 µM and the TGI (OVCAR-4 ovarian) was 33.6 µM. For the same compound, the TGI (OVCAR-8 ovarian) was 31.6 µM, the TGI (HCT-116 colon) was 18.6 µM and the TGI (U251 CNS) was 29.5 µM. For the same compound, the TGI (DLD-1 colon) was 24.2 µM, the TGI (RXF 393 renal) was 28.9 µM and the TGI (OVCAR-5 ovarian) was 53.8 µM. For the same compound, the TGI (LXFL 529 NSCLC) was 24.9 µM, the TGI (UACC-257 melanoma) was 33.6 µM and the TGI (A498 renal) was 30.9 µM. The TGI (HCC-2998 colon) was 31.1 µM, the TGI (HOP-92 NSCLC) was 34.3 µM and the TGI (HT29 colon) was 24.1 µM. It also gave a TGI (SNB-78 CNS) of 33.4 µM, a TGI (KM20L2 colon) of 34.2 µM and a TGI (DMS 273 small cell lung) of 2.83 µM. The TGI (MOLT-4 leukemia) was 56.1 µM, the TGI (SR leukemia) was 9.36 µM and the TGI (CAKI-1 renal) was 13.8 µM. For the same compound, the TGI (UO-31 renal) was 32.7 µM, the TGI (SK-MEL-28 melanoma) was 23.6 µM and the TGI (HOP-18 NSCLC) was 39.5 µM. The TGI (SK-OV-3 ovarian) was 34.3 µM, the TGI (SF-295 CNS) was 25.5 µM and the TGI (DMS 114 small cell lung) was 28.1 µM. The TGI (NCI-H460 lung) was 32.6 µM, the TGI (SK-MEL-2 melanoma) was 21.3 µM and the TGI (UACC-62 melanoma) was 21.4 µM. It also gave a TGI (LOX IMVI melanoma) of 16.6 µM, a TGI (SF-268 CNS) of 18.5 µM and a TGI (A549 NSCLC) of 67.8 µM. It also gave a TGI (SF-539 CNS) of 29.9 µM.
